Among the data in BindingDB's records for doi:10.1021/jm1002827 (Pfizer, 2010) are IC50 values, retold here.

As a reminder, the IC50 is the concentration that gives 50% inhibition.

The assay addresses T1, Estrogen receptor (Homo sapiens, UniProt P03372).
T1 sequence (P03372 whole entry): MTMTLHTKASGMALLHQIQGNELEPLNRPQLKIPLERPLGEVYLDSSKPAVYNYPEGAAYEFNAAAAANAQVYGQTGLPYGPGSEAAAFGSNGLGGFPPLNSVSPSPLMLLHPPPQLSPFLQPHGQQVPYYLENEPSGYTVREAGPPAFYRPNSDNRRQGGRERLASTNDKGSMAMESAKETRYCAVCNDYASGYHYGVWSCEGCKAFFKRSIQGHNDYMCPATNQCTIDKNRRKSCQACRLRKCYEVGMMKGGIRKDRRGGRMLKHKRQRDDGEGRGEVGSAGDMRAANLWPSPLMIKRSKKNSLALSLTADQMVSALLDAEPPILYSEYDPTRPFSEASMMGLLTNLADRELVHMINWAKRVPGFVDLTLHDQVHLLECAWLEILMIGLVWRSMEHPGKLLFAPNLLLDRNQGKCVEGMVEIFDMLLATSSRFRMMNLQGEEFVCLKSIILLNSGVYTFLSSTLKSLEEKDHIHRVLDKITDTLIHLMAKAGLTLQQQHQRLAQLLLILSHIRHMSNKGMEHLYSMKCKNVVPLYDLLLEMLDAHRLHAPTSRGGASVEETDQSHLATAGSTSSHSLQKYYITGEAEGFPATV
Kind of assay: Inhibition of estrogen receptor.

The compound `CC1=NC(C)=C(C(=O)OC(C)(C)C)[C@H](c2ccc(F)cc2Cl)C1C#N` (stereo partly drawn) [tert-Butyl (4R)-4-(2-Chloro-4-fluorophenyl)-5-cyano-2,6-dimethyl-1,4-dihydropyridine-3-carboxylate] had an IC50 of over 10 µM.
In the case of `CCCC1=C(C(=O)OCC)[C@H](c2ccnc3ccccc23)C(C#N)C(C)=N1` (stereo partly drawn) [(R)-Ethyl 5-Cyano-6-methyl-2-propyl-4-quinolin-4-yl-1,4-dihydropyridine-3-carboxylate], the IC50 is over 10 µM.
